Patent US20040033987A1, “Phospholipid derivatives of valproic acid and mixtures thereof” (priority 2003, published 2004)
Entries after “also recorded” stand apart in the source; their conditions may differ.

Columns and labels:
[1] = test system: pentylenetetrazol (PTZ) induced seizure; assay: PTZ-induced seizures test in mice; assay type: in vivo, CD-1 mice; details: for time of peak activity / maximal therapeutic effect: PTZ-induced seizures, s.c. equivalent to 40 mg/kg VPA; for % Protection / Second seizure (n//N): s.c. pre-treatment equivalent to 40 mg/kg VPA
Experimental: The anti-epileptic efficacies of C16-DP-VPA, C18-DP-VPA and mixtures comprising both C16-DP-VPA and C18-DP-VPA were evaluated in mice. The protective effect of the compounds was compared at different time points following chemical seizure induction by pentylenetetrazol (PTZ).
The pentylenetetrazol (PTZ) induced seizure model in mice is an established animal model system for epilepsy. Subcutaneous injection of PTZ into control animals results in the following sequence of events: myoclonic jerks within 1-2 mins, followed by clonic and clonic-tonic seizures each lasting approximately 5-10 secs with the severity of seizures increasing with time for up to 30 mins. 80% of the first seizures are-observed within 5 mins, and 100% within 20 mins. The second seizures usually follow within 6-10 mins and subsequent seizures (if any) every 6 mins.
CD-1 mice (25-30 g) were pre-treated by subcutaneous (s.c.) injection of either C16-DP-VPA or C18-DP-VPA or a mixture thereof. The amounts used were equivalent to 40 mg/kg VPA. After different times as indicated, 1, 2 or 4 hours, a convulsive dose of pentylenetetrazol (85-100 mg/kg) was subcutaneously injected into the mice. The animals were monitored for one hour following the PTZ administration for the occurrence of episodes of clonic spasms persisting for at least 5 sec.

[2] = compared with sodium valproate; from Ser. No. 08/479,959 and WO 94/22483; listed as TVA 16; cited from earlier work
[3] = Pharmacokinetics study in humans: plasma levels by LC-MS/MS after a single oral administration; assay type: in vivo, human; details: for time at which the peak concentration in the plasma was reached / terminal plasma half-life (t1/2): human plasma, single oral administration of C16/C18-DP-VPA (13%:87% w/w); for terminal plasma half-life (t1/2): calculated from plasma concentration-time profiles; for plasma concentration: human
Experimental: In order to assess the pharmacokinetic properties of the C16-DP-VPA and C18-DP-VPA compounds, the plasma levels of these compounds were monitored in human subjects.
Healthy male volunteers, 18-40 year old, (7 individuals for each dose tested) received, by a single oral administration, 0.3125 g, 0.625 g or 1.25 g of C16/C18-DP-VPA mixture at a ratio of C16/C18=13%: 87% (w/w). Blood samples, 10 ml each, were drawn from each individual at the time points after the administration of the drug, as indicated. The samples were centrifuged at 4° C. at 1100 g for 10 minutes immediately after collection. Plasma levels of C16-DP-VPA and C18-DP-VPA were determined using a LC-MS/MS technique. The plasma concentration profiles of C16-DP-VPA and C18-DP-VPA as monitored for 24 hours following a single oral administration 0.625 g of C16/C18-DP-VPA are shown, respectively, in FIGS. 2A and 2B.

[4] = 1 hour after single oral 0.625 g C16/C18-DP-VPA
[5] = 3 hours after single oral 0.625 g C16/C18-DP-VPA
[6] = 6 hours after single oral 0.625 g C16/C18-DP-VPA
[7] = 8 hours after single oral 0.625 g C16/C18-DP-VPA
[8] = 10 hours after single oral 0.625 g C16/C18-DP-VPA
[9] = 12 hours after single oral 0.625 g C16/C18-DP-VPA

time at which the peak concentration in the plasma was reached [3] | terminal plasma half-life (t1/2) [3] | plasma concentration [3, 4] | plasma concentration [3, 5] | plasma concentration [3, 6] | plasma concentration [3, 7] | plasma concentration [3, 8] | plasma concentration [3, 9] | SMILES | time of peak activity / maximal therapeutic effect [1] | % Protection ([1]; PTZ after 1 h) | Second seizure (n//N) ([1]; PTZ after 1 h) | % Protection ([1]; PTZ after 2 h) | Second seizure (n//N) ([1]; PTZ after 2 h) | % Protection ([1]; PTZ after 4 h) | Second seizure (n//N) ([1]; PTZ after 4 h) | anticonvulsant activity [2]
6 h | 14.0 ± 0.6 h | 0.013 ± 0.034 µg/mL | 0.167 ± 0.094 µg/mL | 0.397 ± 0.172 µg/mL | 0.385 ± 0.140 µg/mL | 0.368 ± 0.182 µg/mL | 0.318 ± 0.150 µg/mL | CCCCCCCCCCCCCCCC(=O)OC[C@H](COP(=O)([O-])OCC[N+](C)(C)C)OC(=O)C(CCC)CCC [C16-DP-VPA, 1-Palmitoyl-2-valproyl-sn-glycero-3-phosphatidylcholine] | ≤ 1 h | 50% | 4/8 | 25% | 6/8 | 38% | 5/8 | significant anticonvulsant activity; also recorded: more potent than sodium valproate
8 h | 8.3 ± 1.3 h | 0.000 ± 0.000 µg/mL | 0.058 ± 0.043 µg/mL | 0.818 ± 0.292 µg/mL | 1.175 ± 0.137 µg/mL | 0.949 ± 0.254 µg/mL | 0.698 ± 0.163 µg/mL | CCCCCCCCCCCCCCCCCC(=O)OC[C@H](COP(=O)([O-])OCC[N+](C)(C)C)OC(=O)C(CCC)CCC [C18-DP-VPA, 1-Stearoyl-2-valproyl-sn-glycero-3-phosphatidylcholine] | 4 h | 17% | 5/6 | 14% | 6/7 | 86% | 1/7 | –
